Measured values published in patent US5618809A, “Indolocarbazoles from saccharothrix aerocolonigenes copiosa subsp. nov SCC 1951 ATCC 53856” (Schering Corporation, priority 1995, dated 1997).

Tests used:
[1] = test system: PKC; assay: PKC inhibition (partially purified PKC, Ca2+, phosphatidylserine and 1-oleoyl-2-acetylglycerol, histone III-S substrate); assay type: biochemical, rat
Excerpt: (§1) The PKC was partially purified from rat brain and assayed in the presence of its activators: Ca^2+, phosphatidylserine and 1-oleoyl-2-acetylglycerol. Histone III-S was used as phosphate acceptor. The MLCK was native enzyme from chicken gizzard fully activated by calmodulin. Kemptamide was used as phosphate acceptor.

[2] = target: T1, MLCK (Gallus gallus, UniProt P11799); assay: MLCK inhibition (native enzyme from chicken gizzard, calmodulin activated, Kemptamide substrate); assay type: biochemical
T1 construct: Kemptamide as substrate
Excerpt: as §1

[3] = test system: SHR and DOC-rats; details: cited from earlier work
[4] = test system: PKC (from rats' brains); details: cited from earlier work

Row | SMILES | potency at PKC (in words) [1] | potency at MLCK (in words) [2] | lowering of blood pressure (in words) [3] | PKC inhibitory potency (in words) [4]
1 | COC(=O)[C@@]1(O)C[C@H]2O[C@]1(C)n1c3ccccc3c3c4c(c5c6ccccc6n2c5c31)C(=O)NC4 [Example K-252a] | nanomolar potencies | nanomolar potencies | lowers blood pressure in SHR and DOC-rats | inhibitory to PKC (from rats' brains) with good potency, in the nanomolar range
2 | CC12OC(CC1(O)C(=O)O)n1c3ccccc3c3c4c(c5c6ccccc6n2c5c31)CNC4=O (centres unmarked) [Example K252b] |  |  |  | inhibitory to PKC (from rats' brains) with good potency, in the nanomolar range
